# In PMC10447463, “Data-mining unveils structure–property–activity correlation of viral infectivity enhancing self-assembling peptides” (Nature Communications, 2023):
# Where “and” joins values, the source holds several entries; their conditions need not be identical. Equal entries are not always repeated. Where two headings read alike, the source gives them in different places.
# What was measured:
# [1] = assay type: physicochemical; set-up: key to Fibril / Fibril Formation / TEM 2cat / Fibril: 1 = fibrils present; 0 non-fibrillar structures; settings: for Fibril / Fibril Formation: 1 mg/mL, uranyl acetate stain, qualitative
# [2] = tested on: HIV-1 infection of TZM-bl cells; assay: HIV-1 infectivity enhancement assay, β-galactosidase luminescence; assay type: cell-based; settings: for Rel-EFC / Log10 Infection Rel EFC: 1.3 µM peptide; for Rel-EFC: infection relative to EF-C (QCKIKQIINMWQ = 1); for Log10 Infection Rel EFC: log10 of infection relative to EF-C; for Log Infectivity: Log10 infection relative to EF-C, asymmetric std dev errors; for Log10 Infection Rel EF-C: HIV-1 infection of TZM-bl cells; for Log10 of Rel to EFC (Feb2021): Log10 of infection relative to EF-C; for Abs. Inf.: β-galactosidase luminescence
# [3] = Turbidity, derived count rate of scattered light; assay type: physicochemical; settings: for Count Rate / kcps: derived count rate of scattered light at 633 nm, 173°, from zeta-potential measurement, 0.1 mg/mL in 1 mM KCl after 1 d at 1 mg/mL in PBS, turbidity / microscopic aggregation, mean of triplicate
# How it was run: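 Samples: 1 mg/mL in PBS pH 7.4 (from DMSO), 1 d at RT, then diluted in 1 mM KCl immediately before measurement. Triplicates, two independent runs averaged.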
# [4] = TEM, 1 = fibrils present, 0 = non-fibrillar
# [5] = TEM, 1 = fibrils present, 0 = non-fibrillar structures
# [6] = category: fibrils present or non-fibrillar
# [7] = Fig. S7 panel A (plotted against β-sheet content), TZM-bl cells
# [8] = Log10 of infection rate relative to EF-C, Figure 3A source data
# [9] = infection rate relative to EF-C, log10, data of Figure 2D
# [10] = infection rate relative to EF-C, log10, source data of Figure 2C
# [11] = Log10 of derived count rate of scattered light (turbidity)
# [12] = turbidity, Log10 of derived count rate of scattered light, Figure 3A source data
# [13] = Fig S10 panel D, fibril category by TEM
# [14] = FigS12 panel A, fibril category by TEM
# [15] = log10 of derived count rate of scattered light (turbidity)
# [16] = Fig. S7 panel B (plotted against CR), rounded to two decimals, TZM-bl cells
Substance,Fibril / Fibril Formation ([1]; TEM),"Fibril [1, 4]","Fibril [1, 5]","TEM 2cat [1, 6]",Rel-EFC [2],Log10 Infection Rel EFC [2],"Log Infectivity [2, 7]","Log10 Infection Rel EF-C [2, 8]","Log10 Infection Rel EF-C [2, 9]","Log10 Infection Rel EF-C [2, 10]",Log10 of Rel to EFC (Feb2021) ([2]; all peptides of FigS16),"Log10 Count Rate [3, 11]",Count Rate / kcps [3],"Log10 Count Rate [3, 12]","TEM 2cat [1, 13]","TEM 2cat [1, 14]","Fibril ([1]; FigS12 panel B, TEM)","Log10 Count Rate [3, 15]",Fibril ([1]; Fig S10 panel E),"Log Infectivity [2, 16]",other results
CKFKQFFNM,1,1,1,1,"0,41","-0,39",-0.3892,-0.39,-0.3892,-0.3892,-0.39,4.436,27264 ± 5488 kcps and 27264 kcps,4.436,,,,,,,"TEM 2cat ([1]; Fig S10 panel D): 1; Abs. Inf. ([2]; absolute infection signal, HIV-1 on TZM-bl cells): 15720; Log10 Inf. rel. to EF-C ([2]; log10 of HIV-1 infection of TZM-bl cells relative to EF-C (EF-C = 0)): -0.3892; Log10 Count Rate ([3]; logarithm of count rate in kcps): 4.436; Log10 Count Rate ([3]; turbidity, log10 of derived count rate of scattered light): 4.436"
HHHHKAKAKAKAYYYY,0,0,0,,"0,01","-1,88",-1.883,-1.88,-1.883,-1.883,,2.382,241 kcps,2.382,0,0,0,2.382,,,
CKIW,0,0,0,,"0,05","-1,29",-1.286,-1.29,-1.286,-1.286,,0.5051,3 kcps,0.5051,0,0,0,0.5051,0,-1.29,"Abs. Inf. ([2]; absolute HIV-1 infection signal, TZM-bl cells): 290"
KVKVQVVV,1,1,1,,"0,04","-1,46",-1.455,-1.46,-1.455,-1.455,,2.213,163 kcps,2.213,1,1,1,2.213,,,
KIKIKIKIWWWW,0,0,0,0,"0,59","-0,23",-0.2301,-0.23,-0.2301,-0.2301,-0.23,4.094,12421 kcps,4.094,0,,,4.094,,,"Log10 of Rel to EFC (Feb2021) ([2]; second listing, peptides with TEM 2cat 0): -0.23; Zeta Count Rate ([3]; peptides with TEM 2cat 0): 12421 kcp"
CSISIQINM,1,1,1,1,"0,2","-0,7",-0.7027,-0.7,-0.7027,-0.7027,-0.7,3.517,3291 kcps,3.517,1,,,3.517,1,-0.7,
